Data taken from patent US6787672B2, “Substituted chalcones as therapeutic compounds” (Cancer Research Technology Limited, priority 2000, dated 2004).
Where two headings read alike, the source gives them in different places.

Key:
[1] = tested on: colon cancer cell line HCT-116; experiment: MTT assay, tumour cell growth inhibition, colon HCT-116; type: cell-based, human; settings: for IC50: Homo sapiens, Colon HCT-116, MTT, 96 h
Text: (§1) The human tumour cell lines were the breast cancer cell line MCF-7, the colon cancer cell line HCT-116, and the lung cancer cell line A-549. The MTT assay was used, which exploits the ability of living cells to metabolise the water soluble tetrazolium salt 3-[4,5-dimethylthiazol-2yl-2,5-diphenyl tetrazolium bromide (MTT) into a water insoluble formazan precipitate (Carmichael et al, 1987). The purple precipitate can then be dissolved in an organic solvent and the optical density determined as a measure of cell survival. Compounds were tested concurrently for a true comparison.
(§2) The compound under study was dissolved in DMSO to yield a 10 mM stock solution. […] Cells were seeded into sterile flat-bottomed 96-well plates at a known initial seeding density (MCF-7 1.5×10E3, HCT-116 1×10E3, A549 2×10E3). The cells were plated in RPMI 1640 medium supplemented with 10% heat-inactivated Foetal Calf Serum solution. The plates were then incubated for 24 h at 37° C., 5% CO2 to allow cell adherence. 20 μl of the appropriate drug dilution (from serial dilutions in medium from 10 mM stock) was added to the wells (to give a final well volume of 200 μl). Plates were returned to the incubator for 96 h, and then 50 μl of MTT was added to each well. After a further 4 h incubation, the medium and any unconverted MTT was aspirated from the wells and the formazan precipitate dissolved by the addition of 100 μl of DMSO and several minutes agitation. The absorbance at A450 was then recorded on a plate reader, and the results expressed as a % survival of DMSO treated controls.

[2] = tested on: lung cancer cell line A-549; experiment: MTT assay, tumour cell growth inhibition, lung A-549; type: cell-based, human; settings: for IC50: Homo sapiens, A549, Lung A-549, MTT, 96 h, read-out: IC50, dose required for 50% inhibition of tumour cell growth
Text: as §1, §2

[3] = tested on: breast cancer cell line MCF-7; experiment: MTT assay, tumour cell growth inhibition, breast MCF-7; type: cell-based, human; settings: for IC50: Homo sapiens, MCF7, Breast MCF-7, MTT, 96 h, read-out: IC50, dose required for 50% inhibition of tumour cell growth
Text: as §1, §2

[4] = tested on: splenocytes; experiment: Splenocyte anti-proliferation assay (Con A stimulated, tritiated thymidine); type: cell-based; settings: FIG. 1, triplicate
Text: The anti-inflammatory effects of Compound II (DMU-120) were examined (in triplicate) using a splenocyte anti-proliferation assay.
The splenocyte anti-proliferation assay has been developed to identify compounds that have useful anti-inflammatory properties for the treatment of auto-inflammatory diseases such as rheumatoid arthritis. See, for example, Yamashita et al., 1994. This well known assay is described in detail in, for example, Mosmann, 1983. In this assay, splenocyte proliferation is stimulated by the inflammatory response inducer conconavilin A (Con A). Cell proliferation is monitored by detecting radiation (counts per minute, cpm) from a radio label (tritiated thymidine) which is incorporated only into proliferating cells.
The compound was assayed as a solution in dimethylsulfoxide (DMSO) as solvent. The solvent control is also shown for comparison. Other controls are also shown. “ConA” denotes the signal (cpm) detected for a control where cell proliferation is stimulated by ConA in the absence of a test compound. “Med” denotes the signal (cpm) detected for the cell culture medium alone. “Bkg” denotes the background radiation level (cpm).

[5] = biological target: T1, CYP1B1 enzyme (Homo sapiens, UniProt Q16678); experiment: Metabolism by microsomal preparation of human tumour tissue expressing CYP1B1, HPLC; type: in vitro ADME; settings: human tumour microsomes, NADPH, 1 h, 37° C., pH 7.6
T1 construct: A microsomal preparation of human tumour tissue expressing the CYP1B1 enzyme was prepared; from tissue; host or cells: human tumour tissue (microsomal preparation)
T1 sequence (Q16678 1-543): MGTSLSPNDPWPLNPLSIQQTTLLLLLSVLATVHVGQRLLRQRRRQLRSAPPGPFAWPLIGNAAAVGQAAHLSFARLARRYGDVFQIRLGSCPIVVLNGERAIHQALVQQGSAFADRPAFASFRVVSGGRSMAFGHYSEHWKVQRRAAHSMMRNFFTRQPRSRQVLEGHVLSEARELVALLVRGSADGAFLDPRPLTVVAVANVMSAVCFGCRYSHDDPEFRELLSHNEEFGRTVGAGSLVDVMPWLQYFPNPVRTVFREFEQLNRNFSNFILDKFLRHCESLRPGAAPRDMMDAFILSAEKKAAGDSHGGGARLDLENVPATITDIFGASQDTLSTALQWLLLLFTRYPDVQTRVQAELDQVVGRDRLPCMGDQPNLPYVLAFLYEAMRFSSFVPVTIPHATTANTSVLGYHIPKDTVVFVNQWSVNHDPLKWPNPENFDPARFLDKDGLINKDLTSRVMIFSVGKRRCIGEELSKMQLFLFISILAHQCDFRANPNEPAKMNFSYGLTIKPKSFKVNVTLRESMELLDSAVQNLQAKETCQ
Method: A microsomal preparation of human tumour tissue expressing the CYP1B1 enzyme was prepared essentially as described by the method of Barrie et al., 1989. The experiment was carried out at 37° C., under yellow light. An array of 1.5 ml centrifuge tubes were set up in a water bath shaker-under aerobic conditions. To each tube was then added 500 μl of pH 7.6 buffer (0.1 M NaK2PO4), followed by NADPH (5 μl of a 25 mM stock solution). The microsomal preparation (80 μl) was then added and the tubes preincubated for 5 min at 37° C.
The prodrug substrate, compound II, was then added (10 μl of a 5 mM stock solution) and incubated for 1 h at 37° C. After 1 h the tubes were transferred to an ice/water cooling bath (0° C.). The tubes were then centrifuged at 15,000 rpm for 30 min. A sample of the supernatant (100 μl) was then taken and analysed by HPLC. HPLC conditions: Spherisorb C18 (25 cm×4.6 mm id), used without guard column. Flow rate 1 ml/min. Eluent 75% 0.1 M KH2PO4 and 25% acetonitrile.
The hydroxylated metabolite, compound III, was detected by HPLC, and confirmed by comparison with the authentic hydroxylated synthetic compound III.

[6] = read-out: IC50, dose required for 50% inhibition of tumour cell growth

Row | IC50 [1, 6] [nM] | IC50 [2] [nM] | IC50 [3] [nM] | melting point [°C] | IC50 ([1]; read-out: IC50 against colon tumour cell line HCT-116, restated in nM) [nM] | SMILES | Selectivity Factor (Prodrug/Metabolite) ([1]; Colon HCT-116, IC50 Compound II / IC50 Compound III) | Selectivity Factor (Prodrug/Metabolite) ([2]; Lung A-549, IC50 Compound II / IC50 Compound III) | Selectivity Factor (Prodrug/Metabolite) ([3]; Breast MCF-7, IC50 Compound II / IC50 Compound III) | Concentration showing anti-inflammatory effects on splenocyte proliferation [4] | Metabolic conversion by CYP1B1 (aromatic hydroxylation) [5]
1 | 1200 | 6600 | 690 | 87 to 88 | – | COc1ccc(/C=C/C(=O)c2cc(OC)cc(OC)c2)cc1 [Compound II, (E)-1-(4-Methoxyphenyl)-3-(3,5-dimethoxyphenyl)prop-1-en-3-one] | 15000 | 80 | 1100 | less than 10 μM | converted to the hydroxylated metabolite compound III
2 | 0.08 | 80 | 0.65 | 129 | 0.08 | COc1cc(OC)cc(C(=O)/C=C/c2ccc(OC)c(O)c2)c1 [Compound III, (E)-1-(3-Hydroxy-4-methoxyphenyl)-3-(3,5-dimethoxyphenyl)prop-1-en-3-one] | – | – | – | – | –
3 | – | – | 0.1 | – | – | COc1cc(OC)cc(C(=O)/C=C/c2ccc(OC)cc2OC)c1 [Compound IV, (E)-1-(2,4-dimethoxyphenyl)-3-(3,5-dimethoxyphenyl)prop-1-en-3-one] | – | – | – | – | –
